Measured values published in patent publication EP4741818A1, “COMPOUND TREATMENT METHOD, METHOD FOR PRODUCING COMPOUND OR REACTION PRODUCT OF SAME, SYSTEM FOR TREATING COMPOUND, AND REPLACEMENT TREATMENT COLUMN” (Flugelz Co., Ltd., priority 2023, dated 2025).
≈ marks a conversion by molar mass, not a printed value. Where “and” joins values, the source holds several entries; their conditions need not be identical. Equal entries are not always repeated.

Assay: Solubility of the compound in organic solvents and eluents
Format: physicochemical
Settings: for Solubility (mg/mL) at 25°C / Solubility: 25°C
[1] = eluent hexane and dichloromethane at 6:4 (volume ratio)

Row | Solubility (mg/mL) at 25°C (Dichloromethane) [mg/mL] | Solubility (mg/mL) at 25°C (Ethyl acetate) [mg/mL] | Solubility (mg/mL) at 25°C (Toluene) [mg/mL] | solubility in the used eluent [1] [µg/mL] | Solubility (Example 4 eluent Hexane/ethyl acetate (volume ratio: 8:1)) [µg/mL] | Solubility (Example 5 eluent Hexane/toluene (volume ratio: 2:1)) [µg/mL] | Solubility (Example 6 eluent Hexane/THF (volume ratio: 8:1)) [µg/mL] | Solubility (Example 7 eluent Hexane/acetone (volume ratio: 8:1)) [µg/mL] | solubility in the used eluent (eluent hexane and ethyl acetate at 8:1 (volume ratio)) | solubility in the used eluent (eluent hexane and toluene at 3:2 (volume ratio)) [µg/mL] | SMILES
1 | 30 (≈ 59.8 mM) | 4 (≈ 7.97 mM) | 10 (≈ 19.9 mM) | 3000 | – | – | – | – | – | – | c1ccc(N(c2ccccc2)c2ccc3[nH]c4ccc(N(c5ccccc5)c5ccccc5)cc4c3c2)cc1 [DACT-II precursor, N,N,N',N'-tetraphenyl-9H-carbazole-3,6-diamine]
2 | 100 (≈ 124 mM) | 6 (≈ 7.42 mM) | 30 (≈ 37.1 mM) | 3000 | <1100 | <5900 | <2100 | <300 | 1000 µg/mL and 1100 µg/mL | 5000 | c1ccc(-c2nc(-c3ccccc3)nc(-c3ccc(-n4c5ccc(N(c6ccccc6)c6ccccc6)cc5c5cc(N(c6ccccc6)c6ccccc6)ccc54)cc3)n2)cc1 [DACT-II, 9-[4-(4,6-diphenyl-1,3,5-triazin-2-yl)phenyl]-N,N,N',N'-tetraphenyl-9H-carbazole-3,6-diamine]
